Data: US20250195556A1, “COMPOSITIONS, KITS, AND METHODS TO INDUCE ACQUIRED CYTORESISTANCE USING STRESS PROTEIN INDUCERS” (FRED HUTCHINSON CANCER RESEARCH CENTER, priority 2014, published 2025)
Values joined by “and” are separate entries in the source; they are usually repeats but may differ in a detail not shown here. Identical values can stand only once.

How the values were obtained:
[1] = tested on: cultured proximal tubule (HK-2) cells; conditions: Zager & Burkhart, Kidney Int 1997; cited from earlier work
HO-1 [2] = experiment: Renal cortical HO-1 mRNA and protein after IV N-Mgb, SnPP or both; format: in vivo, mice
Text: (§1) Cytoresistance-inducing reagents. […] (#Mb0360; Sigma) was used as the primary cytoresistance-inducing agent. However, because myoglobin (Mgb) has an inherent nephrotoxic potential (particularly under conditions of volume depletion and aciduria), two approaches were used to mitigate Mgb's potential adverse effects. First, the Mgb was converted into a nitrited form by the addition of equimolar amount of sodium (Na) nitrite. In this regard, nitrite is an ambidentate molecule that directly binds 1:1 to myoglobin Fe either via its oxygen or nitrogen component. Cotton et al. Advanced inorganic chemistry. Hobocken, NJ: Wiley-Interscience, 1999:1355; Silaghi-Dumitrescu et al. Nitric Oxide 2014; 42 C: 32-9. […] Rassaf et al. Circ Res 2014; 114:1601-10; Totzeck et al. Circulation 2012; 126:325-34 [J Clin Invest 1992; 89:989-95]; Totzeck et al. PLOS One 2014; 22: e105951; Hendgen-Cotta et al. Proc Natl Acad Sci USA 2008; 105:10256-61.
(§2) Thirty-two mice were divided into 4 equal groups: (1) control mice; (2) mice treated with 1 mg of N-Mgb injection (as a bolus through the tail vein); (3) mice treated with […] of SnPP (via tail vein); and (4) mice treated with combined N-Mgb 1 SnPP. After either 4 hours (n=16) or 18 hours (n=16), the mice were deeply anesthetized with pentobarbital (50 mg/kg), the abdomen was opened through a midline abdominal incision, and the kidneys were removed. To determine potential effects on extrarenal organs, a liver lobe and the heart were also removed. The tissues were iced and then extracted for protein and RNA (RNeasy Plus Mini; Qiagen, Valencia, California) and subjected to enzyme linked immunosorbent assay (ELISA) and reverse transcriptase polymerase chain reaction (RT-PCR) for HO-1, haptoglobin, and IL-10 protein and messenger RNAs (mRNAs). Zager et al. J Am Soc Nephrol 2014; 25:998-1012; Zager et al. Am J Physiol 2012; 303: F139-48. As an assessment of renal function, control mice and the 18 hour after N-Mgb+SnPP-treated mice had blood urea nitrogen (BUN) and plasma creatinine levels measured. Additionally, transverse 10% formalin fixed kidney sections ([…]) were cut and stained with hematoxylin and eosin (H&E) and periodic acid Schiff (PAS) to further assess potential injury.

haptoglobin [3] = experiment: Liver haptoglobin mRNA and protein after IV N-Mgb, SnPP or both; format: in vivo, mice; parameters: Liver protein: Haptoglobin: unit not given beside the values; conditions: for Liver mRNA: Haptoglobin: control 0.5; for Liver protein: Haptoglobin: control 115.3
Protocol: as §2

haptoglobin [4] = experiment: Renal cortical haptoglobin mRNA and protein after IV N-Mgb, SnPP or both; format: in vivo, mice
Text: as §1, §2

HO-1 [5] = experiment: Cardiac HO-1 mRNA and protein after IV N-Mgb, SnPP or both; format: in vivo, mice; conditions: for Cardiac mRNA: HO-1: control 0.07
Protocol: as §2

IL-10 [6] = experiment: Cardiac IL-10 mRNA and protein after IV N-Mgb, SnPP or both; format: in vivo, mice; conditions: for Cardiac mRNA: IL-10: control 0.36
Protocol: as §2

HO-1 [7] = experiment: Liver HO-1 mRNA and protein after IV N-Mgb, SnPP or both; format: in vivo, mice; conditions: for Liver mRNA: HO-1: control 1.1; for Liver protein: HO-1 protein: control 10.2
Protocol: as §2

haptoglobin [8] = experiment: Cardiac haptoglobin mRNA and protein after IV N-Mgb, SnPP or both; format: in vivo, mice; conditions: for Cardiac mRNA: Haptoglobin: control 0.31; for Cardiac protein: Haptoglobin: control 15.6
Protocol: as §2

Male CD-1 mice = experiment: Maleate model of AKI (FeS, SnPP, FeS+SnPP); format: in vivo; conditions: 1 mg FeS or 1 μmole SnPP IV alone 18 hrs before maleate
Text: Methods. Male CD-1 mice (25-40 grams) Charles River, Wilmington, MA) were used for all experiments. They were housed under standard vivarium conditions with free food and water access. All experiments were approved by the Fred Hutchinson Cancer Research Center IACUC in accordance with NIH guidelines.
Effects of Fe sucrose (FeS)/tin protoporphyrin (SnPP) on AKI severity. Maleate model of AKI. When injected into rodents, maleate undergoes relatively selective proximal tubule cell uptake via organic anion transporters. Once intracellular accumulation occurs, maleate is a preferred substrate for succinyl-CoA: 3-oxoacid CoA transferase. […] Ample levels of CoA are essential for fatty acid “activation”, allowing for their subsequent metabolism through the Krebs cycle, yielding ATP. In the absence of this process, proximal tubule ATP depletion and cell injury result. Additionally, maleate conjugates the sulfhydryl group of glutathione (GSH), culminating in GSH depletion and potential oxidant tubular stress.
The following experiment tested whether FeS, SnPP or combined FeS+SnPP can mitigate this form of acute kidney injury (AKI). […] The severity of kidney injury was assessed by determining plasma blood urea nitrogen (BUN) and plasma creatinine (PCr) concentrations.

[9] = Plasma LDH 4 hr after IV test agents (marker of liver, kidney, lung and heart injury); format: in vivo, mice; conditions: 4 hr IV
IL-10 [10] = experiment: Renal cortical IL-10 mRNA and protein after IV N-Mgb, SnPP or both; format: in vivo, mice; conditions: for Kidney protein: IL-10: control 304
Text: as §1, §2

C=Cc1c2[n-]c(c1C)/C=c1\[n-]/c(c(C)c1C=C)=C\c1[n-]c(c(CCC(=O)O)c1C)/C=c1\[n-]c(c(C)c1CCC(=O)O)=C2.[Sn+4] [SnPP, tin protoporphyrin, reference compound]
Reduction of Mgb toxicity by SnPP addition [1]: ≤ 85%
Kidney mRNA: HO-1 (HO-1 [2]; 4 h after Rx, control 0.61): 4.38 ± 0.28
Kidney HO-1 protein (HO-1 [2]; 4 h after Rx, control 13.3): 22.9 ± 2.6
Kidney mRNA cortex: HO-1 (HO-1 [2]; 18 h after Rx, control 0.61): 0.63 ± 0.06
Kidney protein: HO-1 (HO-1 [2]; 18 h after Rx, control 13.3): 18 ± 2
Liver mRNA: Haptoglobin (haptoglobin [3]; 4 h after Rx): 0.32 ± 0.02
Liver protein: Haptoglobin (haptoglobin [3]; 4 h after Rx): 130.0 ± 8.9
Liver mRNA: Haptoglobin (haptoglobin [3]; 18 h after Rx): 0.65 ± 0.17
Liver protein: Haptoglobin (haptoglobin [3]; 18 h after Rx): 212.0 ± 63.6
Kidney mRNA: Haptoglobin (haptoglobin [4]; 4 h after Rx, control 0.20): 0.19 ± 0.01
Kidney protein: Haptoglobin (haptoglobin [4]; 4 h after Rx, control 7.9): 13.1 ± 1.3
Kidney mRNA cortex: Haptoglobin (haptoglobin [4]; 18 h after Rx, control 0.20): 0.23 ± 0.08
Kidney protein: Haptoglobin (haptoglobin [4]; 18 h after Rx, control 10.3): 53.5 ± 17.2
Cardiac mRNA: HO-1 (HO-1 [5]; 4 h after Rx): 0.14 ± 0.01
Cardiac mRNA: HO-1 (HO-1 [5]; 18 h after Rx): 0.09 ± 0.03
Cardiac protein: HO-1 (HO-1 [5]; 18 h after Rx, control 1.5): 2.67 ± 0.4
Cardiac mRNA: IL-10 (IL-10 [6]; 4 h after Rx): 0.58 ± 0.16
Cardiac protein: IL-10 (IL-10 [6]; 4 h after Rx, control 8.1): 15.8 ± 10^
Cardiac mRNA: IL-10 (IL-10 [6]; 18 h after Rx): 0.53 ± 0.10
Cardiac protein: IL-10 (IL-10 [6]; 18 h after Rx, control 8): 23.4 ± 14^
Liver mRNA: HO-1 (HO-1 [7]; 4 h after Rx): 3.15 ± 0.25
Liver protein: HO-1 protein (HO-1 [7]; 4 h after Rx): 7.4 ± 0.7
Liver mRNA: HO-1 (HO-1 [7]; 18 h after Rx): 2.56 ± 0.21
Liver protein: HO-1 protein (HO-1 [7]; 18 h after Rx): 18 ± 2.5
Cardiac mRNA: Haptoglobin (haptoglobin [8]; 4 h after Rx): 0.52 ± 0.21
Cardiac protein: Haptoglobin (haptoglobin [8]; 4 h after Rx): 19.1 ± 2.1
Cardiac mRNA: Haptoglobin (haptoglobin [8]; 18 h after Rx): 0.59 ± 0.17
Cardiac protein: Haptoglobin (haptoglobin [8]; 18 h after Rx): 96.1 ± 36.2
Severity of maleate-induced renal injury (BUN, PCr) (Male CD-1 mice): Neither SnPP alone nor FeS alone significantly altered
Plasma LDH, Average ([9]; carrier 4.43): 4.51 Absorbance U LDH/ml
Plasma LDH ([9]; individual subjects): 5.00 Absorbance U LDH/ml and 3.23 Absorbance U LDH/ml and 4.54 Absorbance U LDH/ml and 5.29 Absorbance U LDH/ml
Kidney mRNA: IL-10 (IL-10 [10]; 4 h after Rx, control 0.56): 0.39 ± 0.15
Kidney protein: IL-10 (IL-10 [10]; 4 h after Rx): 550 ± 86
Kidney mRNA cortex: IL-10 (IL-10 [10]; 18 h after Rx, control 0.56): 0.18 ± 0.09
Kidney protein: IL-10 (IL-10 [10]; 18 h after Rx): 454 ± 51
